# In patent publication US5750754A, “Heterocyclic compounds” (Zeneca Limited, priority 1993, dated 1998):
# Where a name gives a salt, the structure may show the parent alone.
# Columns and labels:
# [1] = target: T1, human, citrated, platelet-rich plasma (Homo sapiens, UniProt P05106+P08514); experiment: Test (a): inhibition of ADP stimulated platelet aggregation (Born); type: cell-based; conditions: ADP induced aggregation of human platelet-rich plasma; read-out: Test (a): pA2 value indicating potency of platelet aggregation inhibition (converted)
# T1 construct: aggregating human, citrated, platelet-rich plasma; endogenous in cells; host or cells: human platelets in citrated platelet-rich plasma
# How it was run: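 ADP added to human citrated platelet-rich plasma to build aggregation dose-response curves, repeated with increasing test compound (generally 10-^5 M to 10-^10 M). pA2 derived from the 50% response value for ADP with vs. without compound, averaged over several concentrations.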
# [2] = target: T2, purified human platelet fibrinogen receptor (GPIIb/IIIa) (Homo sapiens, UniProt P05106+P08514); experiment: Test (b): GPIIb/IIIa ELISA, inhibition of biotinylated fibrinogen binding; conditions: purified human platelet GPIIb/IIIa, ELISA; read-out: Test (b): pIC50 (-log(IC50)), 50% inhibition of biotinylated fibrinogen binding to GPIIb/IIIa (converted)
# T2 construct: is isolated from human platelet lysates; from tissue
# How it was run: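 GPIIb/IIIa affinity-purified from human platelet lysates was coated on plates, blocked, then incubated 2 h at 30 °C with biotinylated fibrinogen ([…]) plus compound. Bound fibrinogen detected via streptavidin/biotinylated HRP and TMB, OD at 650 nm; pIC50 for 50% binding inhibition.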
# T2 sequence (P08514 32-887 limits assumed): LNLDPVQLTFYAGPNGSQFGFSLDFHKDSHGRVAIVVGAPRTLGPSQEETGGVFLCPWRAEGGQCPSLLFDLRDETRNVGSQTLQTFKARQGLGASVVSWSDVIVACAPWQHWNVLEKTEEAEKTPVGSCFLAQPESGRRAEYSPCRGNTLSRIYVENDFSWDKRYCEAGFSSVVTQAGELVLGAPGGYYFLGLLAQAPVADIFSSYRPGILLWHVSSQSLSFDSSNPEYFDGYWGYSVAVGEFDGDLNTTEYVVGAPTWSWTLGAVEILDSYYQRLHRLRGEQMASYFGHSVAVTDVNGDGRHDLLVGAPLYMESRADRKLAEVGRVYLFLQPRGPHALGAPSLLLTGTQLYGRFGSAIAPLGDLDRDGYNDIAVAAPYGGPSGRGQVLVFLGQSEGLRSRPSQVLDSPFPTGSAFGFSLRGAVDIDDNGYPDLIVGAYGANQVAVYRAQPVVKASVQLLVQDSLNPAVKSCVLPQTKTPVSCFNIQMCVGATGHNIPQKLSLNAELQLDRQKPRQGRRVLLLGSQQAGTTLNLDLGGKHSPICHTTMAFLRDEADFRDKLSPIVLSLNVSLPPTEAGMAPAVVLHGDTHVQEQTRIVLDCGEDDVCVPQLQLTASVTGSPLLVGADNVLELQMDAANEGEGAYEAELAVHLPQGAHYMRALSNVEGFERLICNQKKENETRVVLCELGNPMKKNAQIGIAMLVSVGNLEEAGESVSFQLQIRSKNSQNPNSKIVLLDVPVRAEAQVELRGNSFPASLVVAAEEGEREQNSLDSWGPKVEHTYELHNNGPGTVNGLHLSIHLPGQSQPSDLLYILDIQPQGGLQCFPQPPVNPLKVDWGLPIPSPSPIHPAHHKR
# T2 sequence (P08514 891-1039 limits assumed): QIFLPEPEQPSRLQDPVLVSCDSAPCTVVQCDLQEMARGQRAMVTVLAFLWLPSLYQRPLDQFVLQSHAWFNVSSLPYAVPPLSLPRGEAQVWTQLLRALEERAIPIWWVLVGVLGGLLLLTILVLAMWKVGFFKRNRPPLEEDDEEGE
# T2 sequence (P05106 27-788): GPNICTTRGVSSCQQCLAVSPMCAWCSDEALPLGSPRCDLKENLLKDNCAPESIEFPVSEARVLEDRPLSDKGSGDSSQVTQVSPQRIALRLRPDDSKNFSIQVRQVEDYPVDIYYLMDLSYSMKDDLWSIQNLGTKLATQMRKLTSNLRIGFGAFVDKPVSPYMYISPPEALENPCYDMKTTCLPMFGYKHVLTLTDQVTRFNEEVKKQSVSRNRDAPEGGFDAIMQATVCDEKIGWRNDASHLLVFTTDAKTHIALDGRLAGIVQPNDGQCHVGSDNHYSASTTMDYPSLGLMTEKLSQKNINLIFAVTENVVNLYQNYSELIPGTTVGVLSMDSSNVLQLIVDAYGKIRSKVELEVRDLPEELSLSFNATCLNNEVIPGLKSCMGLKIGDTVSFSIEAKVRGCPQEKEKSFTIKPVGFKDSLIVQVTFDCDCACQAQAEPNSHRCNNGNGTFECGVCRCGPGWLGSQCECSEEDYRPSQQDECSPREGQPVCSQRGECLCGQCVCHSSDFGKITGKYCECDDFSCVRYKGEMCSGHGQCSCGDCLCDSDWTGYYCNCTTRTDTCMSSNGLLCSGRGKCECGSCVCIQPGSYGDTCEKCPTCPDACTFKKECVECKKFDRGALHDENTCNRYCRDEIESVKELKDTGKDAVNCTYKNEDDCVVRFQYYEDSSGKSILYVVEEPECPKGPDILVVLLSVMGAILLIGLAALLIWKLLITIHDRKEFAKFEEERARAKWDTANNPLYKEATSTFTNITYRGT
# T1 sequence (P08514 32-887 limits assumed): as the sequence (P08514 32-887 limits assumed) above
# T1 sequence (P08514 891-1039 limits assumed): as the sequence (P08514 891-1039 limits assumed) above
# T1 sequence (P05106 27-788): as the sequence (P05106 27-788) above
Compound,Kb [1],IC50 [2]
"CC(C)(C)c1cc(C(=O)CN2CCN(c3ccncc3)CC2)cc(C(C)(C)C)c1OCC(=O)O [Example 130, 4-[2-[4-(4-Pyridyl)piperazin-1-yl]acetyl]-2,6-di-tert-butylphenoxyacetic acid]",> 100 µM,3.98 µM
"CCOC(=O)c1ccc(C(=O)CN2CCN(c3ccncc3)CC2)cc1 [Example 131, Ethyl 4-[2-[4-(4-pyridyl)piperazin-1-yl]acetyl]benzoate]",25.1 µM,31.6 µM
"O=C(O)c1ccc(C(=O)CN2CCN(c3ccncc3)CC2)cc1 [Example 132, Sodium 4-[2-[4-(4-pyridyl)piperazin-1-yl]acetyl]benzoate]",63.1 µM,31.6 µM
"COC(=O)COc1cc(OCC(=O)OC)cc(C(=O)CN2CCN(c3ccncc3)CC2)c1 [Example 133, Dimethyl 2,2'-[5-[2-[4-(4-pyridyl)piperazin-1-yl]acetyl]phenylene-1,3-dioxy]diacetate]",2 µM,31.6 µM
"O=C(O)COc1cc(OCC(=O)O)cc(C(=O)CN2CCN(c3ccncc3)CC2)c1 [Example 134, Disodium 2,2'-[5-[2-[4-(4-pyridyl)piperazin-1-yl]acetyl]phenylene-1,3-dioxy]diacetate]",15.8 µM,25.1 µM
"CC(C)(Oc1ccc(C(=O)CN2CCN(c3ccncc3)CC2)cc1)C(=O)O [Example 135, 2-[4-[2-[4-(4-Pyridyl)piperazin-1-yl]acetyl]phenoxy]isobutyric acid, dihydrobromide]",31.6 µM,> 100 µM
"CCOC(=O)COc1ccc(C(=O)CN2CCN(c3ccncc3)CC2)cc1 [Example 136, Ethyl-4-[2-[4-(4-pyridyl)piperazin-1-yl]acetyl]phenoxyacetate]",0.126 µM,2.51 µM
"CC(C)OC(=O)COc1ccc(C(=O)CN2CCN(c3ccncc3)CC2)cc1 [Example 137, iso-Propyl 4-[2-[4-(4-pyridyl)piperazin-1-yl]acetyl]phenoxyacetate]",0.0631 µM,3.16 µM
"CC(C)(C)OC(=O)COc1ccc(C(=O)CN2CCN(c3ccncc3)CC2)cc1 [Example 138, tert-Butyl 4-[2-[4-(4-pyridyl)piperazin-1-yl]acetyl]-phenoxyacetate]",10 µM,12.6 µM
"CC(C)(C)COC(=O)COc1ccc(C(=O)CN2CCN(c3ccncc3)CC2)cc1 [Example 139, Neopentyl 4-[2-[4-(4-pyridyl)piperazin-1-yl]acetyl]phenoxyacetate]",0.251 µM,3.98 µM
"COC(=O)C(Oc1ccc(C(=O)CN2CCN(c3ccncc3)CC2)cc1)C(=O)OC [Example 140, Dimethyl 4-[2-[4-(4-pyridyl)piperazin-1-yl]acetyl]phenoxymalonate]",1.58 µM,0.501 µM
"O=C(CN1CCN(c2ccncc2)CC1)c1ccc(OCc2nnn[nH]2)cc1 [Example 141, 5-[4-[2-[4-(4-Pyridyl)piperazin-1-yl]acetyl]phenoxymethyl]tetrazole]",31.6 µM,31.6 µM
"NC(=O)COc1ccc(C(=O)CN2CCN(c3ccncc3)CC2)cc1 [Example 142, 4-[2-[4-(4-Pyridyl)piperazin-1-yl]acetyl]phenoxyacetamide]",5.01 µM,5.01 µM
"CNC(=O)COc1ccc(C(=O)CN2CCN(c3ccncc3)CC2)cc1 [Example 143, 2-[4-[2-[4-(4-Pyridyl)piperazin-1-yl]acetyl]phenoxy]-N-methylacetamide]",10 µM,31.6 µM
"COCCNC(=O)COc1ccc(C(=O)CN2CCN(c3ccncc3)CC2)cc1 [Example 144, 2-[4-[2-[4-(4-Pyridyl)piperazin-1-yl]acetyl]phenoxy]-N-(2-methoxymethyl)-acetamide]",5.01 µM,5.01 µM
"O=C(COc1ccc(C(=O)CN2CCN(c3ccncc3)CC2)cc1)NCc1ccccc1 [Example 145, 2-[4-[2-[4-(4-Pyridyl)piperazin-1-yl]acetyl]phenoxy]-N-(phenylmethyl)-acetamide]",3.16 µM,5.01 µM
